Source: US8106208B2, “Benzamide compounds that act as NK receptor antagonists” (Albireo AB, priority 2006, dated 2012)

How the values were obtained:
[1] = test system: Human Neurokinin-2 (NK2) Receptor; details: Bioorganic & Medicinal Chemistry Letters (2003), 13, 2211-2215; cited from earlier work
human NK3 receptor = molecular target: T1, human NK3 receptor (Homo sapiens, UniProt P29371); experiment: FLIPR assay, inhibition of human NK3 receptor activation (intracellular Ca2+ increase); type: cell-based; details: CHO cells with human NK3 receptor; agonist Pro-7-NKB; pKB converted from IC50
T1 construct: expressed in transfected cells
T1 sequence (P29371 1-465): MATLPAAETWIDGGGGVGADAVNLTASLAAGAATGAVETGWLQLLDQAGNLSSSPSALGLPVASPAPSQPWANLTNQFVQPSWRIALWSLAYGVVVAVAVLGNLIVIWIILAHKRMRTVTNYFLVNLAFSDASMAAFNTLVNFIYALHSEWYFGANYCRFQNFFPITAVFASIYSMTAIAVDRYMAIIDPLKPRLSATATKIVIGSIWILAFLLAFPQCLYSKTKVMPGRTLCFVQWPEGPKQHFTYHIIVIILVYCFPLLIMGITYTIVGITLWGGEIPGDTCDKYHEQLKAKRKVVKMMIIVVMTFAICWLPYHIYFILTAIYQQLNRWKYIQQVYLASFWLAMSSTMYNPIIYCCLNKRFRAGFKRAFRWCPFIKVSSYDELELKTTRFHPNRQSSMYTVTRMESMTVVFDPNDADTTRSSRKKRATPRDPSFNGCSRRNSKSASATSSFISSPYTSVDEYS
Method: (§1) Chinese Hamster Ovary (CHO) K1 cells (obtained from ATCC) were stably transfected with the human NK2 receptor (hNK2R cDNA in pRc/CMV, Invitrogen) or the human NK3 receptor (hNK3R in pcDNA 3.1/Hygro (+)/IRES/CD8, Invitrogen vector modified at AstraZeneca EST-Bio UK, Alderley Park). The cells were transfected with the cationic lipid reagent LIPOFECTAMINE™ (Invitrogen) and selection was performed with Geneticin (G418, Invitrogen) at 1 mg/ml for the hNK2R transfected cells and with Hygromycin (Invitrogen) at 500 μg/ml for the hNK3R transfected cells. Single cell clones were collected by aid of Fluorescence Activated Cell Sorter (FACS), tested for functionality in a FLIPR assay (see below), expanded in culture and cryopreserved for future use. CHO cells stably transfected with human NK1 receptors originates from AstraZeneca R&D, Wilmington USA. Human NK1 receptor cDNA (obtained from RNA-PCR from lung tissue) was subcloned into pRcCMV (Invitrogen). Transfection was performed by Calcium Phosphate and selection with 1 mg/ml G418. […]
(§2) The activity of a compound of the invention to inhibit NK1/NK2/NK3 receptor activation measured as NK1/NK2/NK3 receptor mediated increase in intracellular Ca^2+ was assessed by the following procedure: […]

human NK1 receptor = molecular target: T2, human NK1 receptor (Homo sapiens, UniProt P25103); experiment: FLIPR assay, inhibition of human NK1 receptor activation (intracellular Ca2+ increase); type: cell-based; details: CHO cells with human NK1 receptor; agonist Substance P; pKB converted from IC50
T2 construct: expressed in transfected cells; from AstraZeneca R&D Wilmington
Method: as §1, §2

[2] = Metabolic stability in liver microsomes (intrinsic clearance); type: in vitro ADME; details: human, pH 7.4, 37° C., read-out: CLint (HLM)
Method: The rate of biotransformation can be measured as either metabolite(s) formation or the rate of disappearance of the parent compound. The experimental design involves incubation of low concentrations of substrate (usually 1.0 μM) with liver microsomes (usually 0.5 mg/ml) and taking out aliquots at varying time points (usually 0, 5, 10, 15, 20, 30, 40 min.). The test compound is usually dissolved in DMSO. The DMSO concentration in the incubation mixture is usually 0.1% or less since more solvent can drastically reduce the activities of some CYP450s. Incubations are done in 100 mM potassium phosphate buffer, pH 7.4 and at 37° C. Acetonitrile or methanol is used to stop the reaction. The parent compound is analysed by HPLC-MS. From the calculated half-life, t1/2, the intrinsic clearance, Clint, is estimated by taking microsomal protein concentration and liver weight into account.

human NK2 receptor = molecular target: T3, human NK2 receptor (Homo sapiens, UniProt P21452); experiment: FLIPR assay, inhibition of human NK2 receptor activation (intracellular Ca2+ increase); type: cell-based; details: CHO cells with human NK2 receptor; agonist NKA; pKB converted from IC50
T3 construct: expressed in transfected cells
T3 sequence (P21452 1-398): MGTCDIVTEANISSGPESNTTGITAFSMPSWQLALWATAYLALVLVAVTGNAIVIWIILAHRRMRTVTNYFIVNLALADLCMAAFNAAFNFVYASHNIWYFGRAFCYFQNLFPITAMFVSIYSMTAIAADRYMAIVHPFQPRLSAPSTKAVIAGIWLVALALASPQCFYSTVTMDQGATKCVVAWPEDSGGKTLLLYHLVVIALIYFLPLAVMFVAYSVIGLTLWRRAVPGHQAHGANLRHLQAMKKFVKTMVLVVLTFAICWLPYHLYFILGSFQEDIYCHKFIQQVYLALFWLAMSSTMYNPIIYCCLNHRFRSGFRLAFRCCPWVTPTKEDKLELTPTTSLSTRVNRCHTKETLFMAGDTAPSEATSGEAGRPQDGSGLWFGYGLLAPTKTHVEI
Method: as §1, §2

[3] = molecular target: hERG-encoded potassium channel (Homo sapiens, UniProt Q12809); experiment: Activity against hERG (planar-array-based voltage clamp, Kiss et al.); type: cell-based
Excerpt: The activity of compounds according to formula I against the hERG-encoded potassium channel can be determined according to Kiss L, et al. Assay Drug Dev Technol. 1 (2003), 127-35: “High throughput ion-channel pharmacology: planar-array-based voltage clamp”.

CYP3A4 = CYP3A4 (Homo sapiens, UniProt P08684); experiment: CYP3A4 inhibition (according to Bapiro et al.); type: in vitro ADME
Method: The IC50 values tested according to Bapiro et al; Drug Metab. Dispos. 29, 30-35 (2001) were generally greater than 10 μM.

T2 sequence (P25103 whole entry): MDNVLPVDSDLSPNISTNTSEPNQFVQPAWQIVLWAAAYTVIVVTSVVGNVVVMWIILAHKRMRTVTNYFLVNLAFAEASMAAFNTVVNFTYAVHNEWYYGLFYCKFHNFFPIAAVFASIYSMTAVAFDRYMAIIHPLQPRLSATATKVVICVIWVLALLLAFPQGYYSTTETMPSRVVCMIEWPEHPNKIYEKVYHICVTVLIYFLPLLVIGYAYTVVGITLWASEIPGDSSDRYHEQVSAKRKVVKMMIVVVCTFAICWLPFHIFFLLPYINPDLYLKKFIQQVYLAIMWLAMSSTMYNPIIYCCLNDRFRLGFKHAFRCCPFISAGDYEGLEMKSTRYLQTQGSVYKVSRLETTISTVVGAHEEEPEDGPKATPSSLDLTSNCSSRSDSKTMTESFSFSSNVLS
Chain of CYP3A4 (P08684 whole entry): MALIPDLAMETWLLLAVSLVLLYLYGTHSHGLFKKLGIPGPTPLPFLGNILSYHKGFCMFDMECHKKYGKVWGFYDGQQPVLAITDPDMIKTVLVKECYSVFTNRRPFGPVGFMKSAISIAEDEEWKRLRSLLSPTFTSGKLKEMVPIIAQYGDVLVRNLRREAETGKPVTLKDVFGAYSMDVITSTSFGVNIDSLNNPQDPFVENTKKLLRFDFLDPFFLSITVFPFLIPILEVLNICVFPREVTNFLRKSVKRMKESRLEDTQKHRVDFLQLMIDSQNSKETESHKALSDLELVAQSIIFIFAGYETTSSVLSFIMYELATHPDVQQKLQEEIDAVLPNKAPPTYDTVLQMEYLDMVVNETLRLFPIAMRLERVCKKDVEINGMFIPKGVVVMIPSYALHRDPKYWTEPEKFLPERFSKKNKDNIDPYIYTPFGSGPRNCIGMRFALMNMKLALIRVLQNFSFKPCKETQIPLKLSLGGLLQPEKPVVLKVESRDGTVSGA
Chain of hERG-encoded potassium channel (Q12809 whole entry): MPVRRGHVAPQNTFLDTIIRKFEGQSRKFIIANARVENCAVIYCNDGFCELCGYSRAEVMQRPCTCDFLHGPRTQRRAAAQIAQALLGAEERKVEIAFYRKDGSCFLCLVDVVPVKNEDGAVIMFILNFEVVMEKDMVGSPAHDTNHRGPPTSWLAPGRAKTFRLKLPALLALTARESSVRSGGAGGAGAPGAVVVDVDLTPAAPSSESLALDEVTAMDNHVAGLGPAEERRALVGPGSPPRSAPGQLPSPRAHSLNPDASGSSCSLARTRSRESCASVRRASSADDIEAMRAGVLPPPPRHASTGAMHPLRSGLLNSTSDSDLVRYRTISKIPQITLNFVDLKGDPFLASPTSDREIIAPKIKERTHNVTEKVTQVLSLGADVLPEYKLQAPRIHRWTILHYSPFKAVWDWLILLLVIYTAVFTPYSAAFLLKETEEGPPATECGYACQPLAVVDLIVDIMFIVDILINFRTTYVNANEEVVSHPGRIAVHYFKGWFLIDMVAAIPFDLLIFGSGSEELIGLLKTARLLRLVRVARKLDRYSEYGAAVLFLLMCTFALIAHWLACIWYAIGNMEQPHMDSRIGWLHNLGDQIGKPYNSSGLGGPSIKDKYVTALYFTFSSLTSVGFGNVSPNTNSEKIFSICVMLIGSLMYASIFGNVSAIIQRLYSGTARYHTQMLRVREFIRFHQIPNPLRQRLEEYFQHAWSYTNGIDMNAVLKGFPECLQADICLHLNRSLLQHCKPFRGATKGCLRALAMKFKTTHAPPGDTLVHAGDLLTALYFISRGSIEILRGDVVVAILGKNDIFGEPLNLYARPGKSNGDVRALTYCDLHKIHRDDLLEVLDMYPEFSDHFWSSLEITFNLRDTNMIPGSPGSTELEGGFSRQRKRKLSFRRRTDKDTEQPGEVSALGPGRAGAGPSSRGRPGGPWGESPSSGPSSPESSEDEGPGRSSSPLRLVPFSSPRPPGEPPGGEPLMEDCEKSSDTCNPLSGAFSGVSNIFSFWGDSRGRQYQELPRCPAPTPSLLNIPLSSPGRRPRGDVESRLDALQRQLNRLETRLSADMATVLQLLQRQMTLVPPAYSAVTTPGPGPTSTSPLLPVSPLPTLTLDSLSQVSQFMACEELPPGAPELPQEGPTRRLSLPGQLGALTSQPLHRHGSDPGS

Row | Kb (human NK3 receptor) [nM] | Kb (human NK1 receptor) [nM] | microsomal CLint at 1 μM [2] [µL/min/mg] | Kb (human NK2 receptor) [nM] | IC50 (CYP3A4) [nM] | SMILES | functional NK2 receptor antagonistic properties [1] | IC50 [3] [nM]
1 | – | – | – | – | – | CN(CC(CCN1CC(N2CCOCC2)C1)c1ccc(Cl)c(Cl)c1)C(=O)c1ccccc1 (stereo not shown) [N-[2-(3,4-dichlorophenyl)-4-(3-morpholin-4-ylazetidin-1-yl)butyl]-N-methylbenzamide] | functional NK2 receptor antagonistic properties | –
2 | 3.98 | 20 | 23 | 2.51 | 13500 | CN(C[C@@H](CCN1CC(N2CCC(C(=O)N3CCC3)CC2)C1)c1ccc(F)cc1)C(=O)c1cc(Br)cc(C(F)(F)F)c1 [Ex 1, N-[(2S)-4-{3-[4-(Azetidin-1-ylcarbonyl)piperidin-1-yl]azetidin-1-yl}-2-(4-fluorophenyl)butyl]-3-bromo-N-methyl-5-(trifluoromethyl)benzamide] | – | 11000
